Measurements: US20130059824A1, “METHODS FOR TREATING MILD COGNITIVE IMPAIRMENT” (AFRAXis, Inc., priority 2009, published 2013)

Columns and labels:
[1] = target: PAK3 (Homo sapiens, UniProt O75914); assay: Z'Lyte fluorescence-based (FRET) kinase assay, PAK3; format: biochemical; conditions: 100 μM ATP (Km apparent), 1 hr room temperature
Description: (§1) A fluorescence-based assay format is used to determine IC50 values of test compounds in vitro. Purified PAK kinase is incubated with ATP, and a test compound at various concentrations and a substrate peptide containing two fluorophores. In a second step, the reaction mix is incubated with a site-specific protease that cleaves non-phosphorylated but not phosphorylated substrate peptide, disrupting the FRET signal generated by the two fluorophores in the cleaved peptide (Z'Lyte™ Kinase assay platform; Life Technologies).
(§2) Reagents: 50 mM HEPES, pH 7.5; 0.01% BRIJ-35; 10 mM MgCl2; 1 mM EGTA, 2 uM substrate peptide Ser/Thr20 (proprietary Life Technologies Sequence), PAK enzyme [2.42-30.8 ng for PAK1, 0.29-6 ng for PAK2, 1.5-20 ng for PAK3 and 0.1-0.86 ng for PAK4; actual enzyme amounts depend on lot activity of the enzyme preparation]
(§3) Test compounds are dissolved in DMSO at various concentrations; the final DMSO concentration in the assay reaction is 1%.
(§4) ATP concentration at Km apparent is used in the assay [50 ? M ATP for PAK1 assay, 75 ? […]
(§5) Plates are analyzed in a standard fluorescence plate reader (Tecan or equivalent) using an excitation wavelength of 400 nm and emission wavelengths of 445 nm and 520 nm Inhibition of kinase reaction is determined by emission ratio=emission@ 445 nm/emission@ 520 nm

[2] = target: PAK4 (Homo sapiens, UniProt O96013); assay: Z'Lyte fluorescence-based (FRET) kinase assay, PAK4; format: biochemical; conditions: 5 μM ATP (Km apparent), 1 hr room temperature
Sequence of PAK4 (O96013 whole entry): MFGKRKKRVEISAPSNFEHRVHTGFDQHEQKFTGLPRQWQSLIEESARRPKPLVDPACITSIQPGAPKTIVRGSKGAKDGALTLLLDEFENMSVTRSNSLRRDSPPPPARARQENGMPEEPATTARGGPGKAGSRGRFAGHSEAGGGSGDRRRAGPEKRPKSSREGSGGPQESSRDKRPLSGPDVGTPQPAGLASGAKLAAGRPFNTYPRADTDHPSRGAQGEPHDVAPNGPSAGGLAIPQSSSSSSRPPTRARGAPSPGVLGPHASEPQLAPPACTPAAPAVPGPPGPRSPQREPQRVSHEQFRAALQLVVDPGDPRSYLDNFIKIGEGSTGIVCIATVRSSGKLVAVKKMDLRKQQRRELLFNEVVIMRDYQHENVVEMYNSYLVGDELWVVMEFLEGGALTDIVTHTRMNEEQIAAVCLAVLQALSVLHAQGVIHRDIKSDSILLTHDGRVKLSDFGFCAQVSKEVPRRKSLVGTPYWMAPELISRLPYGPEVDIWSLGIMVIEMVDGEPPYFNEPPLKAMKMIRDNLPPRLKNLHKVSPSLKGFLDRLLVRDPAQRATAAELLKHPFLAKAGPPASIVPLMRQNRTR
Description: as §1, §2, §3, §4, §5

[3] = target: PAK2 (Homo sapiens, UniProt Q13177); assay: Z'Lyte fluorescence-based (FRET) kinase assay, PAK2; format: biochemical; conditions: 75 μM ATP (Km apparent), 1 hr room temperature
Sequence of PAK2 (Q13177 whole entry): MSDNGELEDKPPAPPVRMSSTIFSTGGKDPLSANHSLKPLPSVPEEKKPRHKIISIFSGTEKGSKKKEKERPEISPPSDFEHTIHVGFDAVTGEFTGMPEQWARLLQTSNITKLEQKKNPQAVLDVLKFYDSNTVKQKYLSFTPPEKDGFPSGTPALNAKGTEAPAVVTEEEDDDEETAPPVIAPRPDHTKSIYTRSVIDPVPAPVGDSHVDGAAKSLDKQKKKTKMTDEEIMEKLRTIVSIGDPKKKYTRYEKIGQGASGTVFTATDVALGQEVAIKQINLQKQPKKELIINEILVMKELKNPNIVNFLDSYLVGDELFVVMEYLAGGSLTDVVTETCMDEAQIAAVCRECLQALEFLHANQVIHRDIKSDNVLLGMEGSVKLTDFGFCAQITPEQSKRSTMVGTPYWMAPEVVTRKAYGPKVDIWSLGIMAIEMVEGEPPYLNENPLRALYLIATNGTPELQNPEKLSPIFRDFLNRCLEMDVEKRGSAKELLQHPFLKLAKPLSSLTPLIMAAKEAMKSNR
Description: as §1, §2, §3, §4, §5

[4] = target: PAK1 (Homo sapiens, UniProt Q13153); assay: Z'Lyte fluorescence-based (FRET) kinase assay, PAK1; format: biochemical; conditions: 50 μM ATP (Km apparent), 1 hr room temperature
Sequence of PAK1 (Q13153 whole entry): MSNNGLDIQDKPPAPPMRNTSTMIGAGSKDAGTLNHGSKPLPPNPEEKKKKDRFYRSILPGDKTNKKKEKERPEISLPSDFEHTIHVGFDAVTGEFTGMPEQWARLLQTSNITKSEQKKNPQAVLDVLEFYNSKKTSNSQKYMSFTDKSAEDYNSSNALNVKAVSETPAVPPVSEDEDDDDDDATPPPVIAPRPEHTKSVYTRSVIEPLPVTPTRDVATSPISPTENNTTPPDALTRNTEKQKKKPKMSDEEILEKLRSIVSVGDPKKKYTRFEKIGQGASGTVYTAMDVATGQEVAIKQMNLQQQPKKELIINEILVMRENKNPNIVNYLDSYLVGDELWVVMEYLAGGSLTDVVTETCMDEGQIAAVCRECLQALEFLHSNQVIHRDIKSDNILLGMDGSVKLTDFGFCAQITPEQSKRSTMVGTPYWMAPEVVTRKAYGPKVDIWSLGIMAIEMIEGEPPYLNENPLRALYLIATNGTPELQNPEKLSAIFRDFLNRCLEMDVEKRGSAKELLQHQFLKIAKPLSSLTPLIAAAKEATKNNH
Description: as §1, §2, §3, §4, §5

[5] = test system: C57/black 6 mice temporal cortex slices; assay: Slice electrophysiology assay (LTP in cortical slices); format: cell-based; conditions: 1 μM compound; theta-burst stimulation protocol; temporal cortex slices of C57/black 6 mice
Description: Materials: coronal cortical slices (400 μam) containing temporal cortex from 2- to 3-month-old C57-Black-6 mice male littermates (from Elevage Janvier, FRANCE) are prepared and allowed to recover in oxygenated (95% O2 and 5% CO2) warm (30° C.) artificial cerebrospinal fluid (ACSF) containing 124 mM NaCl, 5 mM KCl, 1.25 mM, NaH2PO4, 1 mM MgCl2, 2 mM CaCl2, 26 mM NaHCO3, and 10 mM dextrose.
Compound dilution: a 10 mM DMSO stock solution is prepared for each test compound and 100 μL aliquots are stored at −20° C. On the day of experiment an aliquot is thawed and vortexed for fresh solutions preparation. […]
LTP: a stimulus is applied every 30 s with an intensity settled at 40% of the maximal amplitude responses. […] Potentiation of synaptic transmission is then monitored for an additional 40 minutes period. […]
Compound evaluation: following a 10 minutes control recording period (to verify baseline stability), the compound is perfused for 20 minutes. Then, LTP is triggered and the fEPSP amplitude will be recorded for an additional 40 minutes period in the presence of compound.
Data analysis: fEPSP amplitudes are measured as the difference between the baseline (before stimulation) and the maximal peak amplitude. The fEPSP are normalized as a percent of the mean averaged amplitude recorded over a 10 min control period, before compound application. […]

Sequence of PAK3 (O75914 whole entry): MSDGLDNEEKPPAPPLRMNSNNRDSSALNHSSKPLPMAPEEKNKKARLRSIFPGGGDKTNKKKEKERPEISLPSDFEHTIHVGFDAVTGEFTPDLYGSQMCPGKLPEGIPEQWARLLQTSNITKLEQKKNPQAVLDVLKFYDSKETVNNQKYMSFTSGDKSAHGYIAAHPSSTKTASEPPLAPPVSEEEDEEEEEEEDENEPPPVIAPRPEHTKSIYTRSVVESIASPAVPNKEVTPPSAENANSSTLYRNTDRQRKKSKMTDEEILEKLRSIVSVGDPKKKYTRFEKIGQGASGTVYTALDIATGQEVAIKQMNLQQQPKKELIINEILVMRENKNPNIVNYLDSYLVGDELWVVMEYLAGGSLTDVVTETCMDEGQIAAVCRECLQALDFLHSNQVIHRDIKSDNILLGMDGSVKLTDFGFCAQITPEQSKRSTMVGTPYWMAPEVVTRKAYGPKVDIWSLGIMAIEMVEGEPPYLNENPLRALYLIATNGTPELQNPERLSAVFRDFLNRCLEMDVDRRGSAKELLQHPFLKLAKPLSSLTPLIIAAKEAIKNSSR

| SMILES | IC50 [1] [µM] | IC50 [2] [µM] | IC50 [3] [µM] | IC50 [4] [µM] | LTP compared to the baseline (fEPSP amplitude) [5] |
| --- | --- | --- | --- | --- | --- |
| CCOc1ccccc1Cn1c(=O)ccc2cnc(Nc3ccc(N4CCN(C)CC4)cc3)nc21 [Compound 62] | < 1 | 1 to 10 | < 1 | < 1 | – |
| COc1cc(Nc2nccc(-c3ccc(NCCN)nc3)n2)cc(OC)c1OC [Compound A] | – | – | – | – | increased LTP |
| CN1CCN(c2ccc(Nc3ncc4ccc(=O)n(C5CCCC5)c4n3)cc2)CC1 [Compound G, 8-cyclopentyl-2-(4-(4-methylpiperazin-1-yl)phenylamino)pyrido[2,3-d]pyrimidin-7(8H)-one] | – | – | – | – | increased LTP |
